For experiment [1], the target named is GDP-bound KRAS wild-type protein (Homo sapiens, UniProt P01116). The experiment in a line: Binding to KRAS by surface plasmon resonance (SPR), Single Cycle Kinetics. Conditions: SPR, Single Cycle Kinetics. (In general: SPR reads the build-up and loss of mass on a sensor chip optically.)
Experiment [2] deals with GDP-bound NRAS wild-type protein (Homo sapiens, UniProt P01111). The experiment in a line: Binding to NRAS by surface plasmon resonance (SPR), Single Cycle Kinetics. Conditions: SPR; for NRAS/KRAS (ratio of KD value for NRAS to KD value for KRAS): GDP-bound NRAS wild-type protein vs GDP-bound KRAS wild-type protein.
In experiment [3] the target is GDP-bound HRAS wild-type protein (Homo sapiens, UniProt P01112). The experiment in a line: Binding to HRAS by surface plasmon resonance (SPR), Single Cycle Kinetics. Conditions: SPR; for HRAS/KRAS (ratio of KD value for HRAS to KD value for KRAS): GDP-bound HRAS wild-type protein vs GDP-bound KRAS wild-type protein.
The test system of experiment [4] is human lung cancer strain NCI-H441.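 Further: cell proliferation inhibition after four days measured by CellTiter-Glo.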
Where [5] appears, read: GDP-bound KRAS wild-type protein, read-out: KRAS KD.

Read-outs that look alike come from different tables or passages of the source.

Sequence of GDP-bound KRAS wild-type protein (P01116 whole entry): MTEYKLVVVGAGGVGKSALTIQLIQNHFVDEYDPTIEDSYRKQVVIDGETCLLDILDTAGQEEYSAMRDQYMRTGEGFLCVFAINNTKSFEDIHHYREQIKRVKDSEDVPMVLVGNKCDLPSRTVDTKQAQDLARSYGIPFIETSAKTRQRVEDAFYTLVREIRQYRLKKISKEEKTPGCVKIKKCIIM
Sequence of GDP-bound HRAS wild-type protein (P01112 whole entry): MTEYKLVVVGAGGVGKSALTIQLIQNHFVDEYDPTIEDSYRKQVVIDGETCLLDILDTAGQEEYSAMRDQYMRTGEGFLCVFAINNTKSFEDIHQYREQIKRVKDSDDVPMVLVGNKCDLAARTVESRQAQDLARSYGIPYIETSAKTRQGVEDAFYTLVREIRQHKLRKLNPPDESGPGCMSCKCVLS
Sequence of GDP-bound NRAS wild-type protein (P01111 whole entry): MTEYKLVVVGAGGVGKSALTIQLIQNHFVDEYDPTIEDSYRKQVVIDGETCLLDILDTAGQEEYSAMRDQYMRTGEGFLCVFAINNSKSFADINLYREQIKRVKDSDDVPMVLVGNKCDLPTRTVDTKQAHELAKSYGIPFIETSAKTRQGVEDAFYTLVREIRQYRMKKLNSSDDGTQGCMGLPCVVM

On to `CC[C@H](C)[C@@H]1NC(=O)[C@H](CC)N(C)C(=O)C[C@@H](C(=O)N(C)C)N(C)C(=O)[C@H](C2CCCC2)N(C)C(=O)C2(CCC2)NC(=O)[C@@H]2CSCCN2C(=O)[C@H](CCc2cc(F)c(C(F)(F)F)c(F)c2)NC(=O)CN(C)C(=O)[C@H](Cc2ccc(C(F)(F)F)cc2)N2CC/C=C\C[C@@H](C2=O)N(C)C(=O)CN(C)C1=O` [PP1137, (2S,8S,15R,21S,24S,28S,31S,37S,39Z)-21-cyclopentyl-8-[2-[3,5-difluoro-4-(trifluoromethyl)phenyl]ethyl]-28-ethyl-N,N,4,20,23,27,33,36-octamethyl-31-[(1S)-1-methylpropyl]-3,6,9,16,19,22,26,29,32,35,43-undecaoxo-2-[[4-(trifluoromethyl)phenyl]methyl]spiro[13-thia-1,4,7,10,17,20,23,27,30,33,36-undecazatricyclo[35.5.1.0^10,1^5]tritetracont-39-ene-18,1′-cyclobutane]-24-carboxamide], for which, in experiment [1] (setting [5]), the Kd (usually a measure of binding affinity in units of concentration) stood at 0.11 nM. The “NRAS/KRAS (ratio of KD value for NRAS to KD value for KRAS)” value in experiment [2] is “AA (a compound having 20 or more is denoted as AA)”. Besides, the “HRAS/KRAS (ratio of KD value for HRAS to KD value for KRAS)” value in experiment [3] was “A (a compound having 10 or more and less than 20 is denoted as A)”. Further, the IC50 in experiment [4] amounted to 142 nM.

Turning to `CC[C@H](C)[C@@H]1NC(=O)[C@H](CC)N(C)C(=O)C[C@@H](C(=O)N(C)C)N(C)C(=O)[C@H](C2CCCC2)N(C)C(=O)C2(CCC2)NC(=O)[C@@H]2C[C@H](F)CN2C(=O)[C@H](CCc2cc(F)c(C(F)(F)F)c(F)c2)NC(=O)CN(C)C(=O)[C@H](Cc2ccc(C(F)(F)F)cc2)N2CC/C=C\C[C@@H](C2=O)N(C)C(=O)CN(C)C1=O` [PP1132, (2S,8S,12S,14S,20S,23S,27S,30S,36S,38Z)-20-cyclopentyl-8-[2-[3,5-difluoro-4-(trifluoromethyl)phenyl]ethyl]-27-ethyl-12-fluoro-N,N,4,19,22,26,32,35-octamethyl-30-[(1S)-1-methylpropyl]-3,6,9,15,18,21,25,28,31,34,42-undecaoxo-2-[[4-(trifluoromethyl)phenyl]methyl]spiro[1,4,7,10,16,19,22,26,29,32,35-undecazatricyclo[34.5.1.0^10,14]dotetracont-38-ene-17,1′-cyclobutane]-23-carboxamide], in experiment [1] (setting [5]), the Kd worked out at 0.066 nM. The “NRAS/KRAS (ratio of KD value for NRAS to KD value for KRAS)” value in experiment [2] is “A (a compound having 10 or more and less than 20 is denoted as A)”. In addition, the “HRAS/KRAS (ratio of KD value for HRAS to KD value for KRAS)” value in experiment [3] is “B (a compound having 3 or more and less than 10 is denoted as B)”. The same compound came in with an IC50 in experiment [4] of 86.8 nM.

As to `CC[C@H](C)[C@@H]1NC(=O)[C@H](COC)N(C)C(=O)C[C@@H](C(=O)N(C)C)N(C)C(=O)[C@H](C2CCCC2)N(C)C(=O)C2(CC(C)(C)C2)NC(=O)[C@@H]2C[C@H](C)CN2C(=O)[C@H](CCc2ccc(C(F)(F)F)c(OC)c2)NC(=O)CN(C)C(=O)[C@H](Cc2ccc(C)cc2)N2CC/C=C\C[C@@H](C2=O)N(C)C(=O)[C@@H]2C[C@H](C)CN2C1=O` [PP2386], in experiment [1] (setting [5]), the equilibrium dissociation constant (Kd) was found to be 1.2 nM. For the same compound, in experiment [2], the “NRAS/KRAS (ratio of KD value for NRAS to KD value for KRAS)” value is “A (a compound having 10 or more and less than 20 is denoted as A)”. Also, the “HRAS/KRAS (ratio of KD value for HRAS to KD value for KRAS)” value in experiment [3] is “B (a compound having 3 or more and less than 10 is denoted as B)”. The IC50 in experiment [4] amounted to 28.1 nM.

On to `C#CC[C@H]1C(=O)N[C@@H]([C@@H](C)CC)C(=O)N(C)CC(=O)N(C)[C@H]2C/C=C\CCN(C2=O)[C@@H](Cc2ccc(C(F)(F)F)cc2)C(=O)N(C)CC(=O)N[C@@H](CCc2cc(F)c(C(F)(F)F)c(F)c2)C(=O)N2C[C@@H](C)C[C@H]2C(=O)NC2(CCC2)C(=O)N(C)[C@@H](C2CCCC2)C(=O)N(C)[C@H](C(=O)N(C)CCC)CC(=O)N1C` [PP2077], for which the equilibrium dissociation constant (Kd) in experiment [1] (setting [5]) stood at 0.12 nM. For the same compound, the “NRAS/KRAS (ratio of KD value for NRAS to KD value for KRAS)” value in experiment [2] was “A (a compound having 10 or more and less than 20 is denoted as A)”. Also, the “HRAS/KRAS (ratio of KD value for HRAS to KD value for KRAS)” value in experiment [3] was “A (a compound having 10 or more and less than 20 is denoted as A)”. This compound also came in with an IC50 in experiment [4] of 10.9 nM.

As to `CCC[C@H]1C(=O)N[C@@H]([C@@H](C)CC)C(=O)N2CCC[C@H]2C(=O)N(C)[C@H]2C/C=C\CCN(C2=O)[C@@H](Cc2ccc(C(F)(F)F)cc2)C(=O)N(C)CC(=O)N[C@@H](CCc2cc(F)c(C(F)(F)F)c(F)c2)C(=O)N2C[C@H](OCC)C[C@H]2C(=O)N(C)C2(CCC2)C(=O)N(C)[C@@H](C2CCCC2)C(=O)N(C)[C@H](C(=O)N2CCCC2)CC(=O)N1C` [PP3116], the dissociation constant Kd in experiment [1] (1:1 binding model, read-out: KD value with respect to GDP-bound KRAS wild-type protein) is 0.27 nM; in experiment [1] (setting [5]) it was 0.27 nM. Besides, the “NRAS/KRAS (ratio of KD value for NRAS to KD value for KRAS)” value in experiment [2] is “A (a compound having 10 or more and less than 20 is denoted as A)”. Moreover, in experiment [2] (KD(NRAS)/KD(KRAS)), the “ratio of the KD value with respect to GDP-bound NRAS wild-type protein to the KD value with respect to KRAS” value was “A (a compound having 10 or more and less than 20 is denoted as A)”. Besides, the “HRAS/KRAS (ratio of KD value for HRAS to KD value for KRAS)” value in experiment [3] is “A (a compound having 10 or more and less than 20 is denoted as A)”. The “ratio of the KD value with respect to GDP-bound HRAS wild-type protein to the KD value with respect to KRAS” value in experiment [3] (KD(HRAS)/KD(KRAS)) was “A (a compound having 10 or more and less than 20 is denoted as A)”. Moreover, in experiment [4] (read-out: NCI-H441 cell proliferation inhibitory activity, 50% proliferation inhibitory concentration (IC50 value), NCI-H441, four days, CellTiter-Glo), the IC50 is 7.8 nM.

In the case of `CCC[C@H]1C(=O)N[C@@H]([C@@H](C)CC)C(=O)N(C)CC(=O)N(C)[C@H]2C/C=C\CCN(C2=O)[C@@H](Cc2ccc(C(F)(F)F)cc2)C(=O)N(C)CC(=O)N[C@@H](CCc2cc(F)c(C(F)(F)F)c(F)c2)C(=O)N2C[C@H](OCC)C[C@H]2C(=O)NC2(CCC2)C(=O)N(C)[C@@H](C2CCCC2)C(=O)N(C)[C@H](C(=O)N2CCCCC2)CC(=O)N1C` [PP1294], the dissociation constant Kd in experiment [1] (1:1 binding model, GDP-bound KRAS wild-type protein, read-out: KRAS KD) is 0.29 nM. Also, the “NRAS/KRAS (ratio of KD value for NRAS to KD value for KRAS)” value in experiment [2] (KD ratio class) is “A (a compound having 10 or more and less than 20 is denoted as A)”. In experiment [3] (KD ratio class), the “HRAS/KRAS (ratio of KD value for HRAS to KD value for KRAS)” value was “A (a compound having 10 or more and less than 20 is denoted as A)”. In addition, the IC50 in experiment [4] amounted to 10 nM.

Consider `CCOC[C@H]1C(=O)N[C@@H]([C@@H](C)CC)C(=O)N(C)CC(=O)N(C)[C@H]2C/C=C\CCN(C2=O)[C@@H](Cc2ccc(C(F)(F)F)cc2)C(=O)N(C)CC(=O)N[C@@H](CCc2ccc(C(F)(F)F)c(OC)c2)C(=O)N2C[C@@H](C)C[C@H]2C(=O)N(C)C2(CCC2)C(=O)N(C)[C@@H](C2CCCC2)C(=O)N(C)[C@H](C(=O)N(C)C)CC(=O)N1C` [PP2359], for which, in experiment [1] (setting [5]), the dissociation constant (Kd) stood at 0.02 nM. Besides, the “NRAS/KRAS (ratio of KD value for NRAS to KD value for KRAS)” value in experiment [2] was “A (a compound having 10 or more and less than 20 is denoted as A)”. The “HRAS/KRAS (ratio of KD value for HRAS to KD value for KRAS)” value in experiment [3] was “B (a compound having 3 or more and less than 10 is denoted as B)”. In experiment [4], this compound yielded an IC50 of 7.6 nM.

On to `CCOC[C@H]1C(=O)N[C@@H]([C@@H](C)CC)C(=O)N(C)CC(=O)N(C)[C@H]2C/C=C\CCN(C2=O)[C@@H](CC2CCC(F)(F)CC2)C(=O)N(C)CC(=O)N[C@@H](CCc2ccc(C(F)(F)F)c(OC)c2)C(=O)N2C[C@H](OCC)C[C@H]2C(=O)NC2(CC(C)(C)C2)C(=O)N(C)[C@@H](C(CC)CC)C(=O)N(C)[C@H](C(=O)N(C)C)CC(=O)N1C` [PP2446], for which the dissociation constant Kd in experiment [1] (setting [5]) was found to be 0.81 nM. The “NRAS/KRAS (ratio of KD value for NRAS to KD value for KRAS)” value in experiment [2] is “A (a compound having 10 or more and less than 20 is denoted as A)”. In experiment [3], the “HRAS/KRAS (ratio of KD value for HRAS to KD value for KRAS)” value was “A (a compound having 10 or more and less than 20 is denoted as A)”. This compound also came in with an IC50 in experiment [4] of 124 nM.

The record behind these values is US20240158446A1, “CYCLIC COMPOUND HAVING SELECTIVE INHIBITORY ACTION ON KRAS OVER HRAS AND NRAS” (CHUGAI SEIYAKU KABUSHIKI KAISHA, priority 2021, published 2024).
